From the Kinase Knowledgebase extract (Sharma et al. 2016) come the findings set out here.

One may read the IC50 as the point on the concentration scale where inhibition reaches its midpoint. Low values mean inhibition by little substance, high ones a need for much substance.

Structures are written as SMILES.

The target in the test is MAPK14 (human) (UniProt Q16539). Put plainly: Assessment of MAPK14 Kinase Activity.
Chain of MAPK14 (human) (Q16539 whole entry, looked up): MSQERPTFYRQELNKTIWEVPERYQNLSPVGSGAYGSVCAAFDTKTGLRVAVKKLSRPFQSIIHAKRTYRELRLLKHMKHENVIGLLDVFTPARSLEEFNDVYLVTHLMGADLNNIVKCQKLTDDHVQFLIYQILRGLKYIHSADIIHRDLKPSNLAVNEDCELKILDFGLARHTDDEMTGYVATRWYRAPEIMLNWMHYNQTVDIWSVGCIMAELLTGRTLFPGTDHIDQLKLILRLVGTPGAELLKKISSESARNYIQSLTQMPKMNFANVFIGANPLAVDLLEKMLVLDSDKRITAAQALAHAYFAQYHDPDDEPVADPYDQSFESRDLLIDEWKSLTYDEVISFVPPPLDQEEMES

In turn, `CC(=O)Nc1nc(-c2ccc(C)cc2)c(-c2ccncc2)s1` registered an IC50 of 0.076 µM.

Consider `Cc1cccc(-c2nc(-c3ccccc3C)sc2-c2ccncc2)c1`, for which the IC50 is 0.069 µM.

`CC(=O)N(C)c1nc(-c2cccc(C)c2)c(-c2ccncc2)s1` gave an IC50 of 0.048 µM.

For the compound `Cc1cccc(-c2nc(-c3ccc([S+](C)[O-])cc3)sc2-c2ccncc2)c1` (centres undefined), the IC50 worked out at 0.015 µM.

The compound `Cc1cccc(-c2nc(-c3ccc(O)cc3)sc2-c2ccncc2)c1` displayed an IC50 of 0.0053 µM.

The compound `Cc1cccc(-c2nc(C(C)(C)C)sc2-c2ccncc2)c1` yielded an IC50 of 0.031 µM.

For the compound `Cc1cccc(-c2nc(-c3ccccc3)sc2-c2ccncc2)c1`, the IC50 was 0.2 µM.

As to `COc1ccccc1-c1nc(NC(C)=O)sc1-c1ccncc1`, the concentration for half-maximal inhibition (IC50) came out at 1.3 µM.

As for `Cc1cccc(-c2nc(-c3ccc(C(=O)O)cc3)sc2-c2ccncc2)c1`, the IC50 came to 0.21 µM.

Compound `CC(=O)Nc1nc(-c2cccc(Cl)c2)c(-c2ccncc2)s1` showed a 50% inhibitory concentration (IC50) of 0.043 µM.

`CSc1ccc(-c2nc(-c3cccc(C)c3)c(-c3ccncc3)s2)cc1`: the IC50 was determined as 0.022 µM.

Compound `CC(=O)Nc1nc(-c2ccc(Cl)cc2)c(-c2ccncc2)s1` came in with an IC50 of 0.045 µM.

With `COc1ccc(-c2nc(NC(C)=O)sc2-c2ccncc2)cc1`, the IC50 came to 0.074 µM.

`Cc1cccc(-c2nc(N)sc2-c2ccncc2)c1` had an IC50 of 0.0073 µM.

`CS(=O)(=O)c1ccc(-c2nc(-c3ccc(F)cc3)c(-c3ccncc3)s2)cc1` displayed an IC50 of 0.051 µM.

`CC(=O)Nc1nc(-c2ccccc2Cl)c(-c2ccncc2)s1` displayed an IC50 of 0.26 µM.

On to `Cc1cccc(-c2nc(-c3cccc(C)c3)c(-c3ccncc3)s2)c1`, for which the IC50 is 0.074 µM.

Compound `CCc1ccc(-c2nc(-c3cccc(C)c3)c(-c3cc[n+]([O-])cc3)s2)cc1` yielded an IC50 of 1.7 µM.

In turn, `Cc1cccc(-c2nc(C)sc2-c2ccncc2)c1` had an IC50 of 0.027 µM.

Compound `COc1cccc(-c2nc(NC(C)=O)sc2-c2ccncc2)c1` showed an IC50 of 0.073 µM.

`CC(=O)Nc1nc(-c2cccc(C)c2)c(-c2ccncc2)s1` registered an IC50 of 0.0089 µM.

`CC(=O)Nc1nc(-c2cccc(F)c2)c(-c2ccncc2)s1`: the IC50 worked out at 0.14 µM.

Turning to `CC(=O)Nc1nc(-c2ccccc2C)c(-c2ccncc2)s1`, the IC50 was determined as 0.34 µM.

As for `Cc1ccc(-c2nc(-c3cccc(C)c3)c(-c3ccncc3)s2)cc1`, the IC50 was determined as 0.041 µM.
